Values after ≈ are worked out from the molar mass of the structure shown.
Legend:
[1] = target: T1, Dual specificity protein kinase TTK (Homo sapiens, UniProt P33981); assay: Displacement of kinase tracer 236 from TTK (unknown origin) by LanthaScreen Eu kinase binding assay
T1 sequence (P33981 whole entry): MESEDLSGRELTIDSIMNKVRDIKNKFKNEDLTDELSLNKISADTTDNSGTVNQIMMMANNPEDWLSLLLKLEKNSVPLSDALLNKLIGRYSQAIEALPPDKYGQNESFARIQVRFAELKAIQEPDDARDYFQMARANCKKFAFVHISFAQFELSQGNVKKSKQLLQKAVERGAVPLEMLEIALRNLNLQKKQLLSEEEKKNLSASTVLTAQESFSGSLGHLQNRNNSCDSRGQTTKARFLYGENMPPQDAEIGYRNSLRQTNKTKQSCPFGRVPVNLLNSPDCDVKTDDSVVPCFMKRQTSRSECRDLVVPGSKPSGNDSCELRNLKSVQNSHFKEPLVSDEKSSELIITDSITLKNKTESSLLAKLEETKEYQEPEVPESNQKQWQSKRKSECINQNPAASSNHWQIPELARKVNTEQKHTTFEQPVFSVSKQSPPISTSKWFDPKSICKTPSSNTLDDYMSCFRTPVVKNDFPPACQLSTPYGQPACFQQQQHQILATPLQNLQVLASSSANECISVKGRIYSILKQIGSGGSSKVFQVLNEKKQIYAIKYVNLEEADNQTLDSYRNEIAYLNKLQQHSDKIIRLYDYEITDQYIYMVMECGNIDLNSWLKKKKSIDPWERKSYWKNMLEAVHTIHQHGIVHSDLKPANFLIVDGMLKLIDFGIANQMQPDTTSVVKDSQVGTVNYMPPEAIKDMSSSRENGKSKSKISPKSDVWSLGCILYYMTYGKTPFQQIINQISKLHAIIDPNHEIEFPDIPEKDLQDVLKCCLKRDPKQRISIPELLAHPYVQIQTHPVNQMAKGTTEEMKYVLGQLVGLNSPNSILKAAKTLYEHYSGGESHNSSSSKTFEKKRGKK

CAL-51 = assay: Antiproliferative activity against human CAL-51 cells assessed as inhibition of cell proliferation measured after 3 days by Cell Titer-Glo luminescence based assay; format: functional; conditions: CAL-51, 72 h
[2] = Kinetic solubility of compound in PBS at pH 7.4 at 200 uM incubated for 24 hrs by UPLC/MS analysis; format: physicochemical; conditions: read-out: Kinetic_solubility
[3] = Clearance in rat at 2 mg/kg, iv; format: ADME, organism-based; conditions: in vivo
Cytochrome P450 3A4 = Cytochrome P450 3A4 (Homo sapiens, UniProt P08684); assay: Inhibition of CYP3A4 in human liver microsomes using […] as substrate incubated for 5 mins in presence of NADPH by LC-MS/MS analysis; format: ADME
Sequence of Cytochrome P450 3A4 (P08684 whole entry): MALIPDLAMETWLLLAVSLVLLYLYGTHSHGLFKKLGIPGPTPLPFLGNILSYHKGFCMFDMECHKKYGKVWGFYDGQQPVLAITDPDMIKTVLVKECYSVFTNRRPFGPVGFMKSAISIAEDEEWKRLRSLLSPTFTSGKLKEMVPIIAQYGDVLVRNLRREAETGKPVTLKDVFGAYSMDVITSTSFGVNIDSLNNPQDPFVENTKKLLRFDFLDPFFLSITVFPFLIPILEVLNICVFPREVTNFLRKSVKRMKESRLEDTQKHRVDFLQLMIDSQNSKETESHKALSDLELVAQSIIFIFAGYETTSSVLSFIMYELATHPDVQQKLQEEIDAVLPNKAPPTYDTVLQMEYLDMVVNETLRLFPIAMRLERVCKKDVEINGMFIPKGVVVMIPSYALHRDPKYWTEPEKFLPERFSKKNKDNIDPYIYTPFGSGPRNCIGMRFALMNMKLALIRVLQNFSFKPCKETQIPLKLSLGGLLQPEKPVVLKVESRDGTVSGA

Compound | IC50 [1] | solubility kinetic at 24 h, 200 µM [2] | clearance [3] | IC50 (Cytochrome P450 3A4) | IC50 (CAL-51)
CNC(=O)c1ccc(Nc2nc(OC3CCCC3)c3c(-c4ccc5nc(C)oc5c4)c[nH]c3n2)c(OC)c1 |  |  |  | 280 nM | 
CCc1cccc(CC)c1NC(=O)c1ccn(-c2nc(Nc3ccc(N4CCC(N5CCN(C)CC5)CC4)cc3OC)nc3[nH]ccc23)c1 | 2 nM | 53 µM (≈ 35.1 µg/mL) | 68 mL/min/kg | 2000 nM | 6 nM
COc1cc(N2CCN(C3COC3)CC2)ccc1Nc1nc(O[C@H]2CCOC(C)(C)C2)c2cc[nH]c2n1 |  |  |  | > 5000 nM | 
CCc1cccc(CC)c1N1CCn2cc(-c3nc(Nc4ccc(N5CCC(O)(C(=O)N6CCN(C)CC6)CC5)cc4OC)nc4[nH]ccc34)cc2C1=O | 7.5 nM | 2 µM (≈ 1.46 µg/mL) | 20 mL/min/kg | > 5000 nM | 12 nM
CCc1cccc(CC)c1N1CCn2cc(-c3nc(Nc4ccc(N5CCC(C(=O)N6CCN(C)CC6)CC5)cc4OC)nc4[nH]ccc34)cc2C1=O | 5.6 nM | 0.8 µM (≈ 0.573 µg/mL) | 1.7 mL/min/kg | > 5000 nM | 5 nM
CCc1cccc(CC)c1NC(=O)c1cc(-c2nc(Nc3ccc(N4CCN(CC(=O)N(C)C)CC4)cc3OC)nc3[nH]ccc23)n(C)n1 | 3 nM | 3 µM (≈ 1.99 µg/mL) | 20 mL/min/kg |  | 22 nM
CCc1cccc(CC)c1N1CCn2cc(-c3nc(Nc4ccc(N5CCN(CC(=O)N(C)C)CC5)cc4OC)nc4[nH]ccc34)cc2C1=O | 9 nM | 1.4 µM (≈ 0.946 µg/mL) | 23 mL/min/kg |  | 11 nM
CCc1cccc(CC)c1NC(=O)c1cc(-c2nc(Nc3ccc(N4CCC(C(=O)N5CCN(C)CC5)CC4)cc3OC)nc3[nH]ccc23)n(C)n1 | 4 nM | 2 µM (≈ 1.41 µg/mL) | 19 mL/min/kg | > 5000 nM | 17 nM
CCc1cccc(CC)c1NC(=O)c1ccn(-c2nc(Nc3ccc(N4CCC(O)(CN5CCN(C)CC5)CC4)cc3OC)nc3[nH]ccc23)c1 | 1 nM | 37 µM (≈ 25.6 µg/mL) |  | 1200 nM | 4 nM

Continued, in another order:

IC50 [1] | solubility kinetic at 24 h, 200 µM [2] | clearance [3] | IC50 (Cytochrome P450 3A4) | Compound | IC50 (CAL-51)
2 nM | 162 µM (≈ 115 µg/mL) | 56 mL/min/kg | > 5000 nM | CCc1cccc(CC)c1NC(=O)c1cc(-c2nc(Nc3ccc(N4CCC(O)(CN5CCN(C)CC5)CC4)cc3OC)nc3[nH]ccc23)n(C)n1 | 19 nM
2 nM | 1 µM (≈ 0.706 µg/mL) |  | 1900 nM | CCc1cccc(CC)c1NC(=O)c1ccn(-c2nc(Nc3ccc(N4CCC(O)(C(=O)N5CCN(C)CC5)CC4)cc3OC)nc3[nH]ccc23)c1 | 10 nM
2.8 nM | 150 µM (≈ 108 µg/mL) | 15 mL/min/kg | > 5000 nM | CCc1cccc(CC)c1N1CCn2cc(-c3nc(Nc4ccc(N5CCC(O)(CN6CCN(C)CC6)CC5)cc4OC)nc4[nH]ccc34)cc2C1=O | 8 nM
3 nM | 5 µM (≈ 3.6 µg/mL) | 31 mL/min/kg | > 5000 nM | CCc1cccc(CC)c1NC(=O)c1cc(-c2nc(Nc3ccc(N4CCC(O)(C(=O)N5CCN(C)CC5)CC4)cc3OC)nc3[nH]ccc23)n(C)n1 | 20 nM
6 nM | 18 µM (≈ 12.2 µg/mL) | 15 mL/min/kg | > 5000 nM | CCc1cccc(CC)c1NC(=O)c1cc(-c2nc(Nc3ccc(N4CCC(N5CCN(C)CC5)CC4)cc3OC)nc3[nH]ccc23)n(C)n1 | 17 nM
4 nM | 6 µM (≈ 4.13 µg/mL) | 52 mL/min/kg | > 5000 nM | CCc1cccc(CC)c1N1CCn2cc(-c3nc(Nc4ccc(N5CCC(N6CCN(C)CC6)CC5)cc4OC)nc4[nH]ccc34)cc2C1=O | 9 nM
5.3 nM | 125 µM (≈ 89.7 µg/mL) | 27 mL/min/kg | 3900 nM | CCc1cccc(CC)c1N1CCn2cc(-c3nc(Nc4ccc(N5CCC(C(=O)N(C)CCN(C)C)CC5)cc4OC)nc4[nH]ccc34)cc2C1=O | 7 nM
1 nM | 0.5 µM (≈ 0.325 µg/mL) |  |  | CCc1cccc(CC)c1NC(=O)c1ccn(-c2nc(Nc3ccc(N4CCN(CC(=O)N(C)C)CC4)cc3OC)nc3[nH]ccc23)c1 | 10 nM
2 nM |  | 22 mL/min/kg | 3100 nM | CCc1cccc(CC)c1NC(=O)c1ccn(-c2nc(Nc3ccc(N4CCC(C(=O)N5CCN(C)CC5)CC4)cc3OC)nc3[nH]ccc23)c1 | 10 nM

Reference: ChEMBL document CHEMBL5036336, “Structure-Guided Optimization Provides a Series of TTK Protein Inhibitors with Potent Antitumor Activity” (J Med Chem, 2021)
